Measured values taken from ChEMBL document CHEMBL1201862, “PubChem BioAssay data set” (2004).
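Step 1: Grow cells in 96-well plates. Step 2: Expose to compound for 48 hours at 5 concentrations. Step 3: Interpolate endpoints linearly; if unreached, use highest concentration. GI50 is the concentration that inhibits growth by half.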 The source made the active and inactive calls. Rule as the data show it: active = GI50 up to about 1.1 µM and inactive = higher.

How the values were obtained:
Test in all cases: NCI tumour cell line growth inhibition, 48 h
SF-295 = tested on: SF-295
SK-OV-3 = tested on: SK-OV-3
786-0 = tested on: 786-0
U-251 = tested on: U-251
HCC 2998 = tested on: HCC 2998
EKVX = tested on: EKVX
SK-MEL-5 = tested on: SK-MEL-5
UACC-257 = tested on: UACC-257
BT-549 = tested on: BT-549
DU-145 = tested on: DU-145
KM12 = tested on: KM12
ACHN = tested on: ACHN
A549 = tested on: A549
HCT-116 = tested on: HCT-116
Malme-3M = tested on: Malme-3M
NCI-H522 = tested on: NCI-H522
OVCAR-3 = tested on: OVCAR-3
TK-10 = tested on: TK-10
MCF7 = tested on: MCF7
SNB-19 = tested on: SNB-19
HCT-15 = tested on: HCT-15
HOP-62 = tested on: HOP-62
NCI-H226 = tested on: NCI-H226
Hs-578T = tested on: Hs-578T
LOX IMVI = tested on: LOX IMVI
COLO 205 = tested on: COLO 205
IGROV-1 = tested on: IGROV-1
NCI/ADR-RES = tested on: NCI/ADR-RES
SK-MEL-28 = tested on: SK-MEL-28
OVCAR-5 = tested on: OVCAR-5
MDA-N = tested on: MDA-N
HL-60 = tested on: HL-60
UO-31 = tested on: UO-31
UACC-62 = tested on: UACC-62
A498 = tested on: A498
M14 = tested on: M14
RPMI-8226 = tested on: RPMI-8226
NCI-H460 = tested on: NCI-H460
SF-268 = tested on: SF-268
HT-29 = tested on: HT-29
RXF 393 = tested on: RXF 393
MDA-MB-231 = tested on: MDA-MB-231
SNB-75 = tested on: SNB-75
SW-620 = tested on: SW-620
MOLT-4 = tested on: MOLT-4
MDA-MB-435 = tested on: MDA-MB-435
K562 = tested on: K562
SR = tested on: SR
OVCAR-4 = tested on: OVCAR-4
NCI-H23 = tested on: NCI-H23
OVCAR-8 = tested on: OVCAR-8
CAKI-1 = tested on: CAKI-1
PC-3 = tested on: PC-3
HOP-92 = tested on: HOP-92
SN12C = tested on: SN12C
SF-539 = tested on: SF-539
CCRF-CEM = tested on: CCRF-CEM

N/C(=N\c1cccc(Cl)c1)c1ccccc1N
GI50 (SF-295): > 100 µM (inactive)
GI50 (SK-OV-3): > 100 µM (inactive)
GI50 (786-0): > 100 µM (inactive)
GI50 (U-251): > 100 µM (inactive)
GI50 (HCC 2998): > 100 µM (inactive)
GI50 (EKVX): > 100 µM (inactive)
GI50 (SK-MEL-5): > 100 µM (inactive)
GI50 (UACC-257): > 100 µM (inactive)
GI50 (BT-549): > 100 µM (inactive)
GI50 (DU-145): > 100 µM (inactive)
GI50 (KM12): > 100 µM (inactive)
GI50 (ACHN): > 100 µM (inactive)
GI50 (A549): > 100 µM (inactive)
GI50 (HCT-116): > 100 µM (inactive)
GI50 (Malme-3M): > 100 µM (inactive)
GI50 (NCI-H522): > 100 µM (inactive)
GI50 (OVCAR-3): > 100 µM (inactive)
GI50 (TK-10): > 100 µM (inactive)
GI50 (MCF7): > 100 µM (inactive)
GI50 (SNB-19): > 100 µM (inactive)
GI50 (HCT-15): > 100 µM
GI50 (HOP-62): > 100 µM (inactive)
GI50 (NCI-H226): > 100 µM (inactive)
GI50 (Hs-578T): > 100 µM (inactive)
GI50 (LOX IMVI): > 100 µM (inactive)
GI50 (COLO 205): > 100 µM (inactive)
GI50 (IGROV-1): > 100 µM (inactive)
GI50 (NCI/ADR-RES): > 100 µM (inactive)
GI50 (SK-MEL-28): > 100 µM (inactive)
GI50 (OVCAR-5): > 100 µM (inactive)
GI50 (MDA-N): > 100 µM (inactive)
GI50 (HL-60): > 100 µM (inactive)
GI50 (UO-31): > 100 µM (inactive)
GI50 (UACC-62): > 100 µM (inactive)
GI50 (A498): > 100 µM (inactive)
GI50 (M14): > 100 µM (inactive)
GI50 (RPMI-8226): > 100 µM (inactive)
GI50 (NCI-H460): > 100 µM (inactive)
GI50 (SF-268): > 100 µM (inactive)
GI50 (HT-29): > 100 µM (inactive)
GI50 (RXF 393): > 100 µM (inactive)
GI50 (MDA-MB-231): > 100 µM (inactive)
GI50 (SNB-75): > 100 µM (inactive)
GI50 (SW-620): > 100 µM (inactive)
GI50 (MOLT-4): > 100 µM (inactive)
GI50 (MDA-MB-435): > 100 µM (inactive)
GI50 (K562): > 100 µM (inactive)
GI50 (SR): > 100 µM (inactive)
GI50 (OVCAR-4): > 100 µM (inactive)
GI50 (NCI-H23): > 100 µM (inactive)
GI50 (OVCAR-8): > 100 µM (inactive)
GI50 (CAKI-1): > 100 µM (inactive)
GI50 (PC-3): > 100 µM (inactive)

O=C(Nc1nc(C23CC4CC(CC(C4)C2)C3)cs1)c1cc2ccccc2oc1=O
GI50 (SF-295): > 100 µM (inactive)
GI50 (786-0): > 100 µM (inactive)
GI50 (U-251): > 100 µM (inactive)
GI50 (HCC 2998): > 100 µM (inactive)
GI50 (EKVX): > 100 µM (inactive)
GI50 (SK-MEL-5): > 100 µM (inactive)
GI50 (UACC-257): > 100 µM (inactive)
GI50 (BT-549): > 100 µM (inactive)
GI50 (DU-145): > 100 µM (inactive)
GI50 (KM12): > 100 µM (inactive)
GI50 (ACHN): > 100 µM (inactive)
GI50 (A549): 38.2 µM (inactive)
GI50 (HCT-116): > 100 µM (inactive)
GI50 (Malme-3M): > 100 µM (inactive)
GI50 (NCI-H522): > 100 µM (inactive)
GI50 (OVCAR-3): > 100 µM (inactive)
GI50 (TK-10): > 100 µM (inactive)
GI50 (HOP-92): > 100 µM (inactive)
GI50 (MCF7): > 100 µM (inactive)
GI50 (SNB-19): > 100 µM (inactive)
GI50 (SN12C): > 100 µM (inactive)
GI50 (HCT-15): > 100 µM
GI50 (HOP-62): > 100 µM (inactive)
GI50 (NCI-H226): > 100 µM (inactive)
GI50 (Hs-578T): > 100 µM (inactive)
GI50 (LOX IMVI): > 100 µM (inactive)
GI50 (SF-539): > 100 µM (inactive)
GI50 (COLO 205): > 100 µM (inactive)
GI50 (IGROV-1): > 100 µM (inactive)
GI50 (NCI/ADR-RES): > 100 µM (inactive)
GI50 (SK-MEL-28): > 100 µM (inactive)
GI50 (OVCAR-5): > 100 µM (inactive)
GI50 (MDA-N): > 100 µM (inactive)
GI50 (HL-60): > 100 µM (inactive)
GI50 (UO-31): > 100 µM (inactive)
GI50 (A498): > 100 µM (inactive)
GI50 (RPMI-8226): > 100 µM (inactive)
GI50 (NCI-H460): > 100 µM (inactive)
GI50 (SF-268): > 100 µM (inactive)
GI50 (HT-29): > 100 µM (inactive)
GI50 (RXF 393): > 100 µM (inactive)
GI50 (MDA-MB-231): > 100 µM (inactive)
GI50 (SNB-75): > 100 µM (inactive)
GI50 (SW-620): > 100 µM (inactive)
GI50 (MOLT-4): > 100 µM (inactive)
GI50 (CCRF-CEM): > 100 µM (inactive)
GI50 (MDA-MB-435): > 100 µM (inactive)
GI50 (K562): > 100 µM (inactive)
GI50 (SR): > 100 µM (inactive)
GI50 (OVCAR-4): > 100 µM (inactive)
GI50 (NCI-H23): > 100 µM (inactive)
GI50 (OVCAR-8): > 100 µM (inactive)
GI50 (CAKI-1): > 100 µM (inactive)
GI50 (PC-3): > 100 µM (inactive)
